# Patent US20250313563A1, “GLYCOGEN SYNTHASE KINASE 3 INHIBITORS AND USES THEREOF” (The Broad Institute, Inc., priority 2022, published 2025)
# Where two headings read alike, the source gives them in different places.
# Columns and labels:
# [1] = target: GSK3α (GST-full length GSK3α) (Homo sapiens (Human), UniProt P49840); assay: GSK3α TR-FRET kinase assay; format: biochemical
# Procedure, shortened: (§1)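 Full-length GST-tagged human enzyme (1 nM) is exposed to test compound for 30 min before substrates are added. Phosphorylation of a primed biotinylated glycogen synthase peptide proceeds 100 min at room temperature at low ATP (4 μM α; 2 μM β) or high ATP (1 mM). Product is quantified by TR-FRET.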
# [2] = target: GSK3b (GST-full length GSK3b) (Homo sapiens (Human), UniProt P49841); assay: GSK3b TR-FRET kinase assay; format: biochemical
# Procedure, shortened: as §1
# [3] = 1 nM GSK3α, 4 μM ATP, 30 minute preincubation, Table 16, read-out: GSK3-A TR-FRET BIOCHEMICAL (TR-FRET), IC50
# [4] = read-out: GSK3-A (TR-FRET 1 mM ATP), GMean, IC50, 1 mM ATP, geometric mean
# [5] = 1 nM GSK3b, 2 μM ATP, 30 minute preincubation, Table 16, read-out: GSK3-B TR-FRET BIOCHEMICAL (TR-FRET), IC50
# [6] = read-out: GSK3-B (TR-FRET 1 mM ATP), GMean, IC50, 1 mM ATP, geometric mean
# [7] = 1 nM GSK3α, 4 μM ATP, 30 minute preincubation, Table 16, read-out: GSK3-A TR-FRET BIOCHEMICAL (TR-FRET)
# [8] = 1 nM GSK3b, 2 μM ATP, 30 minute preincubation, Table 16, read-out: GSK3-B TR-FRET BIOCHEMICAL (TR-FRET)
# Sequence of GSK3α (GST-full length GSK3α) (P49840 whole entry): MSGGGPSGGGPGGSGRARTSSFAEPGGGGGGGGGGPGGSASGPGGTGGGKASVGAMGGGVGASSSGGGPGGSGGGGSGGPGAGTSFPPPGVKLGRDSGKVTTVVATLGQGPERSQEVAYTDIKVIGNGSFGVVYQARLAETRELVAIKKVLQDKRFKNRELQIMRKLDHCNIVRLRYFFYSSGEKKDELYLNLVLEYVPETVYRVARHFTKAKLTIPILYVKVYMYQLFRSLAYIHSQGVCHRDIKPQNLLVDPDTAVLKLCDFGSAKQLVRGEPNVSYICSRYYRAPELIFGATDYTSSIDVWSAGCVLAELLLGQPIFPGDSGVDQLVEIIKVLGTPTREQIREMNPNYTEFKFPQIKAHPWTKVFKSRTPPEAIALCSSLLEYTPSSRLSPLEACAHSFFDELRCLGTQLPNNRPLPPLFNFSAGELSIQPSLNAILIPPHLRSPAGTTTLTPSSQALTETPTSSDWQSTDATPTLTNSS
# Sequence of GSK3b (GST-full length GSK3b) (P49841 whole entry): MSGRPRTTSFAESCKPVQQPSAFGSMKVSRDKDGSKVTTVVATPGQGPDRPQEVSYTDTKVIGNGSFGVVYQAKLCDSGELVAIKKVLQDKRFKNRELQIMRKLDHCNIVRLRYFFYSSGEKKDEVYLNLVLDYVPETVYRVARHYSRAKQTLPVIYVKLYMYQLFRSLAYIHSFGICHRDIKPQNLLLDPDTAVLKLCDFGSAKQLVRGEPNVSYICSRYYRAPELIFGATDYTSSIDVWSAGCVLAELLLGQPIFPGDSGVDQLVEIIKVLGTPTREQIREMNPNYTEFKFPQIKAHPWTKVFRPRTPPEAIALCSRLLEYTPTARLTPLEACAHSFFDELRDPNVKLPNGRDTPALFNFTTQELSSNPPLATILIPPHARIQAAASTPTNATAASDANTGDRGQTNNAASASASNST
Compound,"IC50 [1, 3] [µM]","IC50 [2, 5] [µM]","IC50 [1, 7] [µM]","IC50 [2, 8] [µM]",further results
CC[C@]1(c2cccc(C(C)C)c2)C2=C(CC(C)(C)NC2=O)Nc2n[nH]c(C)c21 [Compound 949649],≤ 0.1,≤ 0.1,,,"IC50 [1, 4]: 0.1 to 1 µM; IC50 [2, 6]: 1 to 5 µM"
CC[C@@]1(c2cccc(-c3cc(C)ncc3F)c2)C2=C(CC(C)(C)NC2=O)Nc2n[nH]c(C(F)(F)F)c21 [Compound 949650],≤ 0.1,≤ 0.1,,,"IC50 [1, 4]: 0.1 to 1 µM; IC50 [2, 6]: 1 to 5 µM"
CCC1(c2cccc(-c3ccncc3F)c2)C2=C(CC(C)(C)NC2=O)Nc2n[nH]c(F)c21 (centres unmarked) [Compound 949651],≤ 0.1,≤ 0.1,,,"IC50 [1, 4]: 0.1 to 1 µM; IC50 [2, 6]: > 5 µM"
CC[C@@]1(c2cccc(C(F)(F)F)c2)C2=C(Nc3n[nH]cc31)c1ccccc1C2=O [Compound 949742],0.1 to 1,0.1 to 1,,,
CC[C@]1(c2cccc(C(F)(F)F)c2)C2=C(Nc3n[nH]cc31)c1ccccc1C2=O [Compound 949743],≤ 0.1,≤ 0.1,,,"IC50 ([1]; GSK3-A (TR-FRET 1 mM ATP), GMean, IC50, 1 mM ATP, geometric mean): ≤ 0.1 µM; IC50 ([2]; GSK3-B (TR-FRET 1 mM ATP), GMean, IC50, 1 mM ATP, geometric mean): 0.1 to 1 µM"
CCC1(c2cccc(C(C)C)c2)C2=C(CC(C)(C)NC2=O)Nc2n[nH]c(C(F)(F)F)c21 (centres unmarked) [Compound 949747],≤ 0.1,≤ 0.1,,,
CCC1(c2cccc(OC)c2)C2=C(CC(C)(C)NC2=O)Nc2n[nH]c(C(F)(F)F)c21 (centres unmarked) [Compound 949748],≤ 0.1,0.1 to 1,,,
CC[C@]1(c2cccc(C(C)C)c2)C2=C(CC(C)(C)NC2=O)Nc2n[nH]cc21 [Compound 949752],> 5,> 5,,,
CC[C@]1(c2ccccc2)C2=C(C[C@@]3(CCN(C)C3=O)CC2=O)Nc2n[nH]cc21 [Compound 949753],,,1 to 5,> 5,
CC[C@]1(c2ccccc2)C2=C(C[C@]3(CCN(C)C3=O)CC2=O)Nc2n[nH]cc21 [Compound 949754],,,> 5,> 5,
CC[C@]1(c2cccc(-c3ccncc3F)c2)C2=C(CC(C)(C)NC2=O)Nc2n[nH]c(Cl)c21 [Compound 949756],> 5,> 5,,,
CC[C@@]1(c2cccc(-c3ccncc3F)c2)C2=C(CC(C)(C)NC2=O)Nc2n[nH]c(Cl)c21 [Compound 949757],≤ 0.1,≤ 0.1,,,"IC50 [1, 4]: 0.1 to 1 µM; IC50 [2, 6]: 1 to 5 µM"
CC[C@@]1(c2ccccc2)C2=C(C[C@]3(CCN(C)C3=O)CC2=O)Nc2n[nH]cc21 [Compound 949759],,,> 5,> 5,
CC[C@@]1(c2ccccc2)C2=C(C[C@@]3(CCN(C)C3=O)CC2=O)Nc2n[nH]cc21 [Compound 949760],,,0.1 to 1,> 5,
CCC1(c2cccc(C(C)C)c2)C2=C(CC(C)(C)NC2=O)Nc2n[nH]cc21 (centres unmarked) [Compound 949761],≤ 0.1,0.1 to 1,,,"IC50 [1, 4]: 0.1 to 1 µM; IC50 [2, 6]: > 5 µM"
CCC1(c2cccc(Br)c2)C2=C(CC(C)(C)C2=O)Nc2n[nH]cc21 (centres unmarked) [Compound 949805],0.1 to 1,1 to 5,,,
CCC1(c2cccc(C(F)(F)F)c2)C2=C(CCN(c3ccn(C)n3)C2=O)Nc2n[nH]cc21 (centres unmarked) [Compound 949835],≤ 0.1,0.1 to 1,,,
CC[C@]1(c2cccc(C(F)(F)F)c2)C2=C(CCN(c3ccn(C)n3)C2=O)Nc2n[nH]cc21 [Compound 949836],1 to 5,> 5,,,
CCC1(c2cccc(-c3ccnc(C)c3)c2)C2=C(CC(C)(C)C2=O)Nc2n[nH]cc21 (centres unmarked) [Compound 949840],0.1 to 1,1 to 5,,,
CCn1cc(N2CCC3=C(C2=O)[C@](CC)(c2cccc(C(F)(F)F)c2)c2c[nH]nc2N3)cn1 [Compound 949867],≤ 0.1,0.1 to 1,,,
CCn1cc(N2CCC3=C(C2=O)[C@](CC)(c2cccc(C(F)(F)F)c2)c2c[nH]nc2N3)cn1 [Compound 949868],0.1 to 1,> 5,,,
CCC1(c2cccc(-c3cc(C)nnc3C)c2)C2=C(CC(C)(C)NC2=O)Nc2n[nH]c(C(F)(F)F)c21 (centres unmarked) [Compound 949910],≤ 0.1,≤ 0.1,,,
CC[C@]1(c2cccc(-c3cnn(C)c3)c2)C2=C(CC(C)(C)NC2=O)Nc2n[nH]c(C(F)F)c21 [Compound 949911],0.1 to 1,> 5,,,
CC[C@@]1(c2cccc(-c3cnn(C)c3)c2)C2=C(CC(C)(C)NC2=O)Nc2n[nH]c(C(F)F)c21 [Compound 949919],≤ 0.1,≤ 0.1,,,"IC50 [1, 4]: ≤ 0.1 µM; IC50 [2, 6]: 0.1 to 1 µM"
CC[C@]1(c2cccc(-c3cnn(C4CC4(F)F)c3)c2)C2=C(CC(C)(C)NC2=O)Nc2n[nH]cc21 (some centres unmarked) [Compound 950060],≤ 0.1,0.1 to 1,,,
CC[C@]1(c2cccc(-c3cnn(C(C)C)c3F)c2)C2=C(CC(C)(C)NC2=O)Nc2n[nH]cc21 [Compound 950061],0.1 to 1,> 5,,,

Compound,"IC50 [1, 3] [µM]","IC50 [2, 5] [µM]","IC50 [1, 7] [µM]","IC50 [2, 8] [µM]",further results
CCC1(c2cccc(Cc3ncccn3)c2)C2=C(CC(C)(C)NC2=O)Nc2n[nH]cc21 (centres unmarked) [Compound 950151],≤ 0.1,1 to 5,,,
CC[C@]1(c2ccccc2)C2=C(C[C@@]3(CCNC3=O)CC2=O)Nc2n[nH]cc21 [Compound 950160],,,1 to 5,> 5,
CC[C@@]1(c2ccccc2)C2=C(C[C@@]3(CCNC3=O)CC2=O)Nc2n[nH]cc21 [Compound 950161],,,1 to 5,> 5,
CCC1(c2cccc(-c3ccnc(C)c3)c2)C2=C(CC(C)(C)NC2=O)Nc2n[nH]c(C(F)F)c21 (centres unmarked) [Compound 950162],0.1 to 1,0.1 to 1,,,
CC[C@@]1(c2ccccc2)C2=C(C[C@]3(CCNC3=O)CC2=O)Nc2n[nH]cc21 [Compound 950164],,,> 5,> 5,
CC[C@]1(c2ccccc2)C2=C(C[C@]3(CCNC3=O)CC2=O)Nc2n[nH]cc21 [Compound 950165],,,> 5,> 5,
CC[C@]1(c2cccc(-c3cnn(C(F)F)c3)c2)C2=C(CC(C)(C)NC2=O)Nc2n[nH]cc21 [Compound 950254],≤ 0.1,1 to 5,,,
CC[C@@]1(c2cccc(C(F)(F)F)c2)C2=C(CC(C)(C)C2=O)Nc2n[nH]cc21 [Compound 950272],≤ 0.1,0.1 to 1,,,
CCC1(c2cccc(C(F)(F)F)c2)C2=C(CC(C)(C)C2=O)Nc2n[nH]cc21 (centres unmarked) [Compound 950273],> 5,> 5,,,
CC[C@@]1(c2cccc(-c3ccnc(C)c3)c2)C2=C(CC(C)(C)C2=O)Nc2n[nH]cc21 [Compound 950282],≤ 0.1,0.1 to 1,,,
CCC1(c2cccc(Oc3ncccn3)c2)C2=C(CC(C)(C)NC2=O)Nc2n[nH]c(Cl)c21 (centres unmarked) [Compound 950318],≤ 0.1,≤ 0.1,,,
CCC1(c2cccc(-c3ccncc3F)c2)C2=C(CC(C)(C)NC2=O)Nc2n[nH]c(C(F)F)c21 (centres unmarked) [Compound 950320],≤ 0.1,≤ 0.1,,,
CCC1(c2cccc(Oc3ncccn3)c2)C2=C(CC(C)(C)NC2=O)Nc2n[nH]c(C(F)(F)F)c21 (centres unmarked) [Compound 950323],≤ 0.1,≤ 0.1,,,
CCC1(c2cccc(C(F)(F)F)c2)C2=C(CC3(CCNC3=O)CC2=O)Nc2n[nH]cc21 (centres unmarked) [Compound 950324],,,≤ 0.1,0.1 to 1,
CC[C@]1(c2cccc(C(F)(F)F)c2)C2=C(C[C@@]3(CCN(C)C3=O)CC2=O)Nc2n[nH]cc21 [Compound 950325],,,> 5,> 5,
CCC1(c2cccc(C(F)(F)F)c2)C2=C(CC3(CCN(C)C3=O)CC2=O)Nc2n[nH]cc21 (centres unmarked) [Compound 950329],,,≤ 0.1,≤ 0.1,
CCC1(c2cccc(C(F)(F)F)c2)C2=C(CC3(CCN(C)C3=O)CC2=O)Nc2n[nH]cc21 (centres unmarked) [Compound 950330],,,0.1 to 1,> 5,
CCC1(c2cccc(C(F)(F)F)c2)C2=C(CC3(CCNC3=O)CC2=O)Nc2n[nH]cc21 (centres unmarked) [Compound 950331],,,0.1 to 1,> 5,
CC[C@@]1(c2cccc(C(F)(F)F)c2)C2=C(C[C@]3(CCNC3=O)CC2=O)Nc2n[nH]cc21 [Compound 950332],,,> 5,> 5,
CC[C@@]1(c2cccc(C(F)(F)F)c2)C2=C(C[C@@]3(CCNC3=O)CC2=O)Nc2n[nH]cc21 [Compound 950333],,,≤ 0.1,0.1 to 1,
Cc1nccc([C@H]2CC[C@]3(CC2)C2=C(CC(C)(C)CC2=O)Nc2n[nH]cc23)c1C [Compound 950477],,,0.1 to 1,0.1 to 1,
Cc1nccc([C@H]2CC[C@@]3(CC2)C2=C(CC(C)(C)CC2=O)Nc2n[nH]cc23)c1C [Compound 950478],,,≤ 0.1,≤ 0.1,
CCC1(c2cccc(C(F)(F)F)c2)C2=C(CCN(c3cn[nH]c3)C2=O)Nc2n[nH]cc21 (centres unmarked) [Compound 950479],≤ 0.1,0.1 to 1,,,
CCC1(c2cccc(N(C)c3ncccn3)c2)C2=C(CC(C)(C)NC2=O)Nc2n[nH]c(C(F)F)c21 (centres unmarked) [Compound 950484],≤ 0.1,≤ 0.1,,,
CCC1(c2cccc(C(F)(F)F)c2)C2=C(CCN(c3nn(C)cc3C)C2=O)Nc2n[nH]cc21 (centres unmarked) [Compound 950486],0.1 to 1,1 to 5,,,
